Source: paper PMC5421785, “Citrullination only infrequently impacts peptide binding to HLA class II MHC” (PLoS ONE, 2017)
Where two headings read alike, the source gives them in different places. Square brackets hold non-standard residues; d marks the D form. Peptide text beside a SMILES is read from it. Cit = NC(=O)NCCC[C@H](N)C(=O)O

Tests used:
[1] = molecular target: T1, HLA-DRB1*01:01 (Homo sapiens, UniProt P01903+P01911, A100R/D57E/F55L/F60I/F76Y/I96L/L162R/M171V/P40L/Q125E/R42F/V115G/Y59C); test: HLA class II peptide binding, inhibition of radiolabeled peptide binding to purified MHC
T1 construct: EBV transformed homozygous cell lines were used as sources of MHC molecules; endogenous in cells; host or cells: EBV transformed homozygous cell lines

[2] = molecular target: T2, HLA-DRB1*04:01 (Homo sapiens, UniProt P01903+P01911, A100K/A169T/F76Y/I96L/K127E/L162R/M171V/N62H/P40V/Q125Y/R42H/S133A/S149N/S66Y/V115G/V209L/W38E); test: as above
T2 construct: EBV transformed homozygous cell lines were used as sources of MHC molecules; endogenous in cells; host or cells: EBV transformed homozygous cell lines

[3] = citrullinated 15-mer peptide (X = citrulline), purified HLA-DRB1*01:01, read-out: DRB1*01:01 binding capacity, Cit peptide (IC50 nM)
[4] = citrullinated 15-mer peptide (X = citrulline), purified HLA-DRB1*04:01, read-out: DRB1*04:01 binding capacity, Cit peptide (IC50 nM)
[5] = citrullinated 15-mer (X), purified MHC, inhibition of radiolabeled peptide binding, dash = IC50 >40,000 nM, read-out: DRB1*01:01 binding capacity, Cit peptide (IC50 nM)
[6] = citrullinated 15-mer (X), purified MHC, inhibition of radiolabeled peptide binding, dash = IC50 >40,000 nM, read-out: DRB1*04:01 binding capacity, Cit peptide (IC50 nM)
[7] = ratio of WT IC50 to Cit IC50, >1 = citrullination increases binding

Compound	IC50 [1, 3]	IC50 [2, 4]	IC50 [1, 5]	IC50 [2, 6]	further results
CC(C)C[C@H](NC(=O)[C@H](C)NC(=O)[C@H](CC(=O)O)NC(=O)[C@@H](N)CC(N)=O)C(=O)N[C@@H](CCCNC(N)=O)C(=O)N[C@@H](CCC(N)=O)C(=O)N[C@@H](C)C(=O)N[C@@H](CCCCN)C(=O)N[C@@H](CCC(N)=O)C(=O)N[C@@H](CCC(=O)O)C(=O)N[C@@H](CO)C(=O)N[C@H](C(=O)N[C@@H](CCC(=O)O)C(=O)N[C@@H](Cc1ccc(O)cc1)C(=O)N[C@@H](CCCNC(=N)N)C(=O)O)[C@@H](C)O [NDALXQAKQESTEYR] (H-NDAL[Cit]QAKQESTEYR-OH)	22600 nM	> 40000 nM			
CC(C)C[C@H](NC(=O)[C@H](CC(N)=O)NC(=O)[C@H](CC(=O)O)NC(=O)[C@H](CCCNC(N)=O)NC(=O)[C@H](CCC(=O)O)NC(=O)[C@@H](NC(=O)[C@H](CCC(=O)O)NC(=O)[C@@H](NC(=O)[C@H](CCCNC(=N)N)NC(=O)[C@H](C)NC(=O)[C@H](CCCCN)NC(=O)[C@H](CC(=O)O)NC(=O)[C@@H](N)CC(N)=O)C(C)C)C(C)C)C(=O)N[C@@H](C)C(=O)N[C@@H](CCC(=O)O)C(=O)O [NDKARVEVEXDNLAE] (H-NDKARVEVE[Cit]DNLAE-OH)			578 nM	1410 nM	
CC(C)C[C@H](NC(=O)[C@H](CC(N)=O)NC(=O)[C@H](CC(=O)O)NC(=O)[C@H](CCCNC(=N)N)NC(=O)[C@H](CCC(=O)O)NC(=O)[C@@H](NC(=O)[C@H](CCC(=O)O)NC(=O)[C@@H](NC(=O)[C@H](CCCNC(N)=O)NC(=O)[C@H](C)NC(=O)[C@H](CCCCN)NC(=O)[C@H](CC(=O)O)NC(=O)[C@@H](N)CC(N)=O)C(C)C)C(C)C)C(=O)N[C@@H](C)C(=O)N[C@@H](CCC(=O)O)C(=O)O [NDKAXVEVERDNLAE] (H-NDKA[Cit]VEVERDNLAE-OH)			1070 nM	905 nM	
CC[C@H](C)[C@H](NC(=O)[C@H](Cc1ccc(O)cc1)NC(=O)[C@H](CC(N)=O)NC(=O)[C@H](C)NC(=O)[C@H](Cc1ccccc1)NC(=O)[C@H](CCCNC(=N)N)NC(=O)[C@H](CC(=O)O)NC(=O)[C@@H](N)CC(N)=O)C(=O)N[C@@H](CC(=O)O)C(=O)N[C@@H](CCCCN)C(=O)N[C@H](C(=O)N[C@@H](CCCNC(N)=O)C(=O)N[C@@H](Cc1ccccc1)C(=O)N[C@@H](CC(C)C)C(=O)N[C@@H](CCC(=O)O)C(=O)O)C(C)C [NDRFANYIDKVXFLE] (H-NDRFANYIDKV[Cit]FLE-OH)			229 nM	5660 nM	
CC[C@H](C)[C@H](NC(=O)[C@H](Cc1ccc(O)cc1)NC(=O)[C@H](CC(N)=O)NC(=O)[C@H](C)NC(=O)[C@H](Cc1ccccc1)NC(=O)[C@H](CCCNC(N)=O)NC(=O)[C@H](CC(=O)O)NC(=O)[C@@H](N)CC(N)=O)C(=O)N[C@@H](CC(=O)O)C(=O)N[C@@H](CCCCN)C(=O)N[C@H](C(=O)N[C@@H](CCCNC(=N)N)C(=O)N[C@@H](Cc1ccccc1)C(=O)N[C@@H](CC(C)C)C(=O)N[C@@H](CCC(=O)O)C(=O)O)C(C)C [NDXFANYIDKVRFLE] (H-ND[Cit]FANYIDKVRFLE-OH)			816 nM	10900 nM	
CSCC[C@H](NC(=O)[C@H](CCC(=O)O)NC(=O)[C@H](CCC(=O)O)NC(=O)[C@H](CCCCN)NC(=O)[C@H](CCSC)NC(=O)[C@@H](N)CC(N)=O)C(=O)N[C@@H](C)C(=O)N[C@@H](CCCNC(=N)N)C(=O)N[C@@H](Cc1c[nH]cn1)C(=O)N[C@@H](CC(C)C)C(=O)N[C@@H](CCCNC(N)=O)C(=O)N[C@@H](CCC(=O)O)C(=O)N[C@@H](Cc1ccc(O)cc1)C(=O)N[C@@H](CCC(N)=O)C(=O)N[C@@H](CC(=O)O)C(=O)O [NMKEEMARHLXEYQD]	5060 nM	> 40000 nM			
CSCC[C@H](NC(=O)[C@H](CCC(=O)O)NC(=O)[C@H](CCC(=O)O)NC(=O)[C@H](CCCCN)NC(=O)[C@H](CCSC)NC(=O)[C@@H](N)CC(N)=O)C(=O)N[C@@H](C)C(=O)N[C@@H](CCCNC(N)=O)C(=O)N[C@@H](Cc1c[nH]cn1)C(=O)N[C@@H](CC(C)C)C(=O)N[C@@H](CCCNC(=N)N)C(=O)N[C@@H](CCC(=O)O)C(=O)N[C@@H](Cc1ccc(O)cc1)C(=O)N[C@@H](CCC(N)=O)C(=O)N[C@@H](CC(=O)O)C(=O)O [NMKEEMAXHLREYQD]	5190 nM	> 40000 nM			
CC(C)C[C@H](NC(=O)[C@H](C)NC(=O)[C@@H](NC(=O)[C@H](Cc1ccc(O)cc1)NC(=O)[C@@H](NC(=O)[C@H](Cc1ccccc1)NC(=O)[C@H](CCCNC(N)=O)NC(=O)[C@H](CO)NC(=O)[C@@H](N)CC(N)=O)[C@@H](C)O)[C@@H](C)O)C(=O)N[C@@H](CCCCN)C(=O)N[C@@H](CC(=O)O)C(=O)NCC(=O)N[C@@H](CS)C(=O)N[C@H](C(=O)N[C@@H](CCCCN)C(=O)O)[C@@H](C)O [NSXFTYTALKDGCTK] (H-NS[Cit]FTYTALKDGCTK-OH)					IC50 ([1]; citrullinated peptide as listed (X at Cit position), read-out: DRB1*01:01 binding capacity Cit peptide (IC50 nM)): 44 nM; IC50 ([1]; value of the wild-type (non-citrullinated) counterpart of the listed peptide, read-out: DRB1*01:01 binding capacity WT peptide (IC50 nM)): 15 nM; IC50 ([2]; citrullinated peptide as listed (X at Cit position), read-out: DRB1*04:01 binding capacity Cit peptide (IC50 nM)): 12400 nM; IC50 ([2]; value of the wild-type (non-citrullinated) counterpart of the listed peptide, read-out: DRB1*04:01 binding capacity WT peptide (IC50 nM)): 4170 nM
CC(C)C[C@H](NC(=O)[C@H](CO)NC(=O)[C@H](C)NC(=O)[C@H](CC(N)=O)NC(=O)[C@H](CC(=O)O)NC(=O)[C@@H](NC(=O)[C@H](CC(=O)O)NC(=O)[C@H](CCC(N)=O)NC(=O)[C@H](CCCNC(N)=O)NC(=O)[C@H](Cc1ccccc1)NC(=O)[C@H](CO)NC(=O)[C@H](CCC(N)=O)NC(=O)[C@H](CC(C)C)NC(=O)[C@@H](NC(=O)[C@@H](N)CC(N)=O)[C@@H](C)O)C(C)C)C(=O)O [NTLQSFXQDVDNASL] (H-NTLQSF[Cit]QDVDNASL-OH)			2000 nM	702 nM	
CC[C@H](C)[C@H](NC(=O)[C@H](CCCCN)NC(=O)[C@H](CC(N)=O)NC(=O)[C@H](CCC(N)=O)NC(=O)[C@H](CCC(N)=O)NC(=O)[C@H](CCC(=O)O)NC(=O)[C@H](CC(C)C)NC(=O)[C@H](Cc1ccccc1)NC(=O)[C@H](CCCNC(N)=O)NC(=O)[C@@H](NC(=O)[C@H](CCCCN)NC(=O)[C@H](CC(=O)O)NC(=O)[C@@H](NC(=O)[C@H](Cc1ccc(O)cc1)NC(=O)[C@@H](N)CC(N)=O)[C@@H](C)CC)C(C)C)C(=O)O [NYIDKVXFLEQQNKI] (H-NYIDKV[Cit]FLEQQNKI-OH)			102 nM	1210 nM	
CC[C@H](C)[C@H](NC(=O)[C@H](CCCNC(N)=O)NC(=O)[C@H](CS)NC(=O)[C@@H]1CCCN1)C(=O)N[C@@H](CS)C(=O)N[C@H](C(=O)N[C@@H](CS)C(=O)N[C@@H](CC(=O)O)C(=O)N[C@H](C(=O)NCC(=O)N[C@H](C(=O)N[C@H](C(=O)N[C@@H](CC(C)C)C(=O)N[C@@H](CS)C(=O)N[C@@H](CC(=O)O)C(=O)O)C(C)C)[C@@H](C)O)[C@@H](C)O)C(C)C [PCXICVCDTGTVLCD] (H-PC[Cit]ICVCDTGTVLCD-OH; N-terminus and C-terminus assumed)					DRB1*01:01 binding capacity, WT/cit ratio [1, 7]: 0.463; DRB1*04:01 binding capacity, WT/cit ratio [2, 7]: 1.2
C[C@H](NC(=O)CNC(=O)[C@H](CCC(N)=O)NC(=O)[C@@H]1CCCN1C(=O)CNC(=O)[C@@H]1CCCN1C(=O)[C@@H]1CCCN1C(=O)CNC(=O)[C@H](CCCNC(N)=O)NC(=O)[C@@H]1CCCN1C(=O)CNC(=O)[C@@H]1CCCN1C(=O)[C@H](Cc1ccccc1)NC(=O)CNC(=O)[C@@H]1CCCN1)C(=O)O [PGFPGPXGPPGPQGA] (H-PGFPGP[Cit]GPPGPQGA-OH)					IC50 ([1]; citrullinated 15-mer peptide (X = citrulline), […], read-out: DRB1*01:01 binding capacity, Cit peptide (IC50 nM)): > 40000 nM; IC50 ([2]; citrullinated 15-mer peptide (X = citrulline), […], read-out: DRB1*04:01 binding capacity, Cit peptide (IC50 nM)): 37800 nM
CC[C@H](C)[C@H](NC(=O)CNC(=O)[C@@H]1CCCN1)C(=O)N[C@@H](CC(=O)O)C(=O)N[C@@H](CCSC)C(=O)N[C@@H](CO)C(=O)N[C@@H](C)C(=O)N[C@@H](Cc1ccccc1)C(=O)N[C@@H](C)C(=O)NCC(=O)N[C@@H](CC(C)C)C(=O)NCC(=O)N1CCC[C@H]1C(=O)N[C@@H](CCCNC(N)=O)C(=O)N[C@@H](CCC(=O)O)C(=O)O [PGIDMSAFAGLGPXE] (H-PGIDMSAFAGLGP[Cit]E-OH)	122 nM	12900 nM			
CC[C@H](C)[C@H](NC(=O)CNC(=O)[C@H](C)NC(=O)[C@H](C)NC(=O)CNC(=O)[C@H](CCCNC(N)=O)NC(=O)[C@H](CCC(=O)O)NC(=O)CNC(=O)[C@@H]1CCCN1C(=O)[C@H](CCSC)NC(=O)CNC(=O)[C@H](CCC(N)=O)NC(=O)[C@H](CC(C)C)NC(=O)CNC(=O)[C@@H]1CCCN1)C(=O)O [PGLQGMPGEXGAAGI] (H-PGLQGMPGE[Cit]GAAGI-OH)	55 nM	4170 nM			
CC(C)C[C@H](NC(=O)CNC(=O)[C@@H]1CCCN1)C(=O)N[C@@H](CCCNC(N)=O)C(=O)NCC(=O)N[C@@H](CC(C)C)C(=O)N1CCC[C@H]1C(=O)NCC(=O)N[C@@H](CCCCN)C(=O)N[C@@H](CC(=O)O)C(=O)NCC(=O)N[C@@H](CCC(=O)O)C(=O)N[C@H](C(=O)NCC(=O)N[C@@H](C)C(=O)O)[C@@H](C)O [PGLXGLPGKDGETGA] (H-PGL[Cit]GLPGKDGETGA-OH)	109 nM	> 40000 nM			
